Experimental data as given in patent US11298363B2, “Triazolobenzazepines as vasopressin V1a receptor antagonists” (RICHTER GEDEON NYRT., priority 2017, dated 2022).

Legend:
[1] = molecular target: T1, human vasopressin V1a receptor (Homo sapiens, UniProt P37288); test: Functional assay on human vasopressin V1a receptor expressing cell line (intracellular Ca2+ fluorescence); assay type: cell-based; conditions: 1321N1 cells, (Arg8)-vasopressin at EC80; read-out: IC50 (nM) on hV1a cell line
[2] = molecular target: T1, human vasopressin V1a receptor; test: Human vasopressin V1a receptor binding assay; conditions: 1321N1 cell membranes, [3H]vasopressin; read-out: Ki (nM) on hV1a cell line
In short: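 Ki values come from IC50 via Cheng-Prusoff (KD from prior Scatchard), averaged over at least two independent runs. Human V1a membranes were incubated with radioligand 60 minutes at 27° C., bound ligand collected by filtration; (Arg^8)-vasopressin at 1.2×10^−6 M defined non-specific binding.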

mouse V1a receptor = mouse V1a receptor (Mus musculus, UniProt Q62463); test: Functional V1a in vivo test: inhibition of oxytocin-induced scratching behaviour; conditions: mice, 10 mg/kg p.o. pretreatment
Sequence of mouse V1a receptor (Q62463 whole entry): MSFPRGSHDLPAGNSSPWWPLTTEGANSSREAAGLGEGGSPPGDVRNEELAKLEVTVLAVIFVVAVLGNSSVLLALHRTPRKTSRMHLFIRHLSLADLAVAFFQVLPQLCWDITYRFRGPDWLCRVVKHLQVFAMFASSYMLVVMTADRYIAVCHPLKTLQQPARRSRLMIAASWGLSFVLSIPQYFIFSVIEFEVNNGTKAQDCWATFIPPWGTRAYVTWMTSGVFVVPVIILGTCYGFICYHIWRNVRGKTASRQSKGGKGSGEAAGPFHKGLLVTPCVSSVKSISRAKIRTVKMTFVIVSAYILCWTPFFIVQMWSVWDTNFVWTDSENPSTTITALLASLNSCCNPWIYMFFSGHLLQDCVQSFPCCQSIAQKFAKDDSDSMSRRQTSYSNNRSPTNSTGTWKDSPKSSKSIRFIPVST
Description: Functional V1a In Vivo Test
Male mice (NMRI, ToxiCoop) weighing 18-40 g were used. Animals were kept at least 5 days after delivery, during housing and measurements they were fed and drink ad libitum. The experiments were permitted by the Local Animal Protection Committee and carried out in accordance with the European Animal Protection Directives (EU Directive 2010/63/EU).
Animal behaviour was measured by an automated behavioral analysis system (LABORAS™). The sensors located below platforms detect the mechanical vibration generated by the movement of animal, and transform into an electrical signal (Quinn et al., J Neurosci Methods 2003, 130:83-92). After analyzing signals, the system analyzes the time spent with the following behavioral parameters: locomotion, immobility, climbing, grooming. The grooming algorithm by definition is able to measure the scratching behavioral response. During the experiment, mice were pretreated with the test substance or vehicle, and after the pretreatment period scratching-inducing compound (s.c. 0.3 mg/kg oxytocin) was administered, and then the animals were individually placed into measuring cages. […] To reduce the exploratory activity, the animals were measured after a 1-hour habituation to the cage. The behavioural parameters were compared to the parallel measured parameters of the control animals.
The behavioural inhibitory effect of the substances was calculated with average values of parallel measured vehicle treated groups and presented as the percentage of inhibition: 0% was expressed as average value of scratching behaviour of vehicle pretreated animals (and phys. saline s.c. pretreated with vehicle), while 100% was expressed as average value of scratching of vehicle pretreated animals that received oxytocin subcutaneously. For statistical analysis one-way analysis of variance (ANOVA) with Tukey post hoc test were used.

T1 sequence (P37288 whole entry): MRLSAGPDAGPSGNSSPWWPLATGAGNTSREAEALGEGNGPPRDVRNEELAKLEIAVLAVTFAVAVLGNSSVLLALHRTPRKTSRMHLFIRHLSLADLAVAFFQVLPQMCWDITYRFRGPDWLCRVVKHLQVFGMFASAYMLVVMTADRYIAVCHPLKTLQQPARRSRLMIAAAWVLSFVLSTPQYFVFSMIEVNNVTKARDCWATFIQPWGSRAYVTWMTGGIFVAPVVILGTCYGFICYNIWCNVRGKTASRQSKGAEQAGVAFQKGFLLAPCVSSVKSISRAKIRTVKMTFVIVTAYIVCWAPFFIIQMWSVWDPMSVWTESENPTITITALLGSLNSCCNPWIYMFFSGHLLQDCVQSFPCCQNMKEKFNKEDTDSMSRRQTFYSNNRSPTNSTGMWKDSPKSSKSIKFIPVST

| IC50 [1] [nM] | Ki [2] [nM] | inhibition (%) of oxytocin-induced scratching behaviour response (mouse V1a receptor) [%] | SMILES |
| --- | --- | --- | --- |
| 0.9 | 0.3 | 79 | Clc1ccc2c(c1)CC1(Cc3nnc([C@H]4CC[C@H](Oc5ccccn5)CC4)n3-2)OCCCO1 [Example 88, 8′-chloro-1′-[trans-4-(pyridin-2-yloxy)cyclohexyl]-4′H,6′H-spiro[1,3-dioxane-2,5′-[1,2,4]triazolo[4,3-a][1]benzazepine]] |
| 5.4 | 0.6 | 89 | Clc1ccc2c(c1)CC(NC1CCOCC1)Cc1nnc([C@H]3CC[C@H](Oc4ccccn4)CC3)n1-2 (stereo partly drawn) [Example 29, 8-chloro-1-[trans-4-(pyridin-2-yloxy)cyclohexyl]-N-(tetrahydro-2H-pyran-4-yl)-5,6-dihydro-4H-[1,2,4]triazolo[4,3-a][1]benzazepine-5-amine] |
| 2.7 | 0.2 | 65 | CO[C@]1(C)CC[C@@H](c2nnc3n2-c2ccc(Cl)cc2CC2(C3)OCCCO2)CC1 [Example 204, 8′-chloro-1′-(trans-4-methoxy-4-methylcyclohexyl)-4′H,6′H-spiro[1,3-dioxane-2,5′-[1,2,4]triazolo[4,3-a][1]benzazepine]] |
| 0.8 | 0.2 | 49 | Fc1ccc2c(c1)CC1(Cc3nnc([C@H]4CC[C@H](Oc5ccccn5)CC4)n3-2)OCCO1 [Example 96, 8′-fluoro-1′-[trans-4-(pyridin-2-yloxy)cyclohexyl]-4′H,6′H-spiro[1,3-dioxolane-2,5′-[1,2,4]triazolo[4,3-a][1]benzazepine]] |
| 1510 | 62 |  | CCC(C)(C)C(=O)N[C@H]1Cc2cc(Cl)ccc2-n2c(nnc2[C@H]2CC[C@H](Oc3ccccn3)CC2)C1 [Example 158, N-{(5S)-8-chloro-1-[trans-4-(pyridin-2-yloxy)cyclohexyl]-5,6-dihydro-4H-[1,2,4]triazolo[4,3-a][1]benzazepin-5-yl}-2,2-dimethylbutanamide] |
| 12 | 0.7 |  | COc1ccc(CN(C)[C@H]2CC[C@H](c3nnc4n3-c3ccc(Cl)cc3CC3(C4)OCCO3)CC2)cc1 [Example 230, Trans-4-(8′-chloro-4′H,6′H-spiro[1,3-dioxolane-2,5′-[1,2,4]triazolo[4,3-a][1]benzazepin]-1′-yl)-N-(4-methoxybenzyl)-N-methylcyclohexanamine] |
| 4.9 | 0.4 |  | CCN(C)[C@H]1Cc2cc(Cl)ccc2-n2c(nnc2[C@H]2CC[C@H](Oc3ccccn3)CC2)C1 [Example 160] |
| 2.5 | 0.8 |  | Clc1ccc2c(c1)CC(OCC1CC1)Cc1nnc([C@H]3CC[C@H](Oc4ccccn4)CC3)n1-2 (stereo partly drawn) [Example 59, 5-(Cyclopropylmethoxy)-8-chloro-1-[trans-4-(pyridin-2-yloxy)cyclohexyl]-5,6-dihydro-4H-[1,2,4]triazolo[4,3-a][1]benzazepine] |
| 10 | 1.1 |  | N[C@@H](C(=O)N[C@@H]1Cc2cc(Cl)ccc2-n2c(nnc2[C@H]2CC[C@H](Oc3ccccn3)CC2)C1)c1ccccc1 [Example 14, (2R)-2-amino-N-{(5R)-8-chloro-1-[trans-4-(pyridin-2-yloxy)cyclohexyl]-5,6-dihydro-4H-[1,2,4]triazolo[4,3-a][1]benzazepin-5-yl}-2-phenylacetamide] |
| 1.5 | 0.2 |  | CCO[C@]1(C)CC[C@@H](c2nnc3n2-c2ccc(Cl)cc2CC2(C3)OCCO2)CC1 [Example 237, 8′-chloro-1′-(trans-4-ethoxy-4-methylcyclohexyl)-4′H,6′H-spiro[1,3-dioxolane-2,5-[1,2,4]triazolo[4,3-a][1]benzazepine]] |
| 1.3 | 0.7 |  | C#CCOC1Cc2cc(Cl)ccc2-n2c(nnc2[C@H]2CC[C@H](Oc3ccccn3)CC2)C1 (stereo partly drawn) [Example 211, 8-chloro-5-(prop-2-yn-1-yloxy)-1-[trans-4-(pyridin-2-yloxy)cyclohexyl]-5,6-dihydro-4H-[1,2,4]triazolo[4,3-a][1]benzazepine] |
